Assay results as given in PubChem BioAssay AID328 (DTP/NCI, 2004).
Several values for one entry are separate records, joined by “and”; a condition that tells them apart may be missing. Equal values may be shown once. Toxic doses and inconclusive results are not listed. How the source made its calls: active means survival T/C of 150% or more; inactive means T/C below 125% in these data. Non-standard residues stand in square brackets, D forms with d. Residues, ends and D or L forms follow the SMILES beside them. ξ: configuration not given here. Ac5c = NC1(C(=O)O)CCCC1; ξS = NC(CO)C(=O)O

Test system: BDF1 mice, P388 leukemia ip, median survival T/C
Experiment: NCI In Vivo Anticancer Drug Screen. Data for tumor model P388 Leukemia (intraperitoneal) in B6D2F1 (BDF1) mice
Conditions: endpoint: median survival time, higher = longer survival
How it was run: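 Steps: implant the tumour, treat one group with compound and another with vehicle, record survival, then divide treated by control.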

[1] = dose: 50.0 mg/kg/injection, schedule: Q01DX009 (ip), vehicle: saline with Tween-80
[2] = dose: 100.0 mg/kg/injection, schedule: Q01DX009 (ip), vehicle: saline with Tween-80
[3] = dose: 200.0 mg/kg/injection, schedule: Q01DX009 (ip), vehicle: saline with Tween-80
[4] = dose: 100.0 mg/kg/injection, schedule: Q01DX009 (ip), vehicle: Klucel (hydroxypropylcellulose) (HPC)
[5] = dose: 200.0 mg/kg/injection, schedule: Q01DX009 (ip), vehicle: Klucel (hydroxypropylcellulose) (HPC)
[6] = dose: 200.0 mg/kg/injection, schedule: Q04DX003 (ip), vehicle: Klucel (hydroxypropylcellulose) (HPC)
[7] = dose: 400.0 mg/kg/injection, schedule: Q01DX009 (ip), vehicle: saline with Tween-80
[8] = dose: 100.0 mg/kg/injection, schedule: Q04DX003 (ip), vehicle: Klucel (hydroxypropylcellulose) (HPC)
[9] = dose: 400.0 mg/kg/injection, schedule: Q04DX003 (ip), vehicle: Klucel (hydroxypropylcellulose) (HPC)

Measured: T/C

CCSc1ncc2cnccn12
inactive: dose: 0.37 mg/kg/injection, schedule: Q01DX009 (ip), vehicle: water 108 % of control | dose: 0.75 mg/kg/injection, schedule: Q01DX009 (ip), vehicle: water 111 % of control and 112 % of control | dose: 1.0 mg/kg/injection, schedule: Q01DX009 (ip), vehicle: water 102 % of control | dose: 1.5 mg/kg/injection, schedule: Q01DX009 (ip), vehicle: water 112 % of control and 117 % of control and 120 % of control | dose: 2.0 mg/kg/injection, schedule: Q01DX009 (ip), vehicle: water 94 % of control and 105 % of control | dose: 3.12 mg/kg/injection, schedule: Q04DX003 (ip), vehicle: water 100 % of control | dose: 4.0 mg/kg/injection, schedule: Q01DX009 (ip), vehicle: water 94 % of control and 100 % of control | dose: 5.0 mg/kg/injection, schedule: Q01DX009 (ip), vehicle: water 91 % of control | dose: 6.0 mg/kg/injection, schedule: Q01DX009 (ip), vehicle: water 88 % of control and 104 % of control | dose: 6.25 mg/kg/injection, schedule: Q04DX003 (ip), vehicle: water 100 % of control | dose: 12.5 mg/kg/injection, schedule: Q04DX003 (ip), vehicle: water 102 % of control | dose: 16.0 mg/kg/injection, schedule: Q01DX009 (ip), vehicle: water 89 % of control

CC(=O)N1CCc2nc3ccccc3cc21
inactive: dose: 24.75 mg/kg/injection, schedule: Q01DX009 (ip), vehicle: Klucel (hydroxypropylcellulose) (HPC) 123 % of control | dose: 25.0 mg/kg/injection, schedule: Q01DX009 (ip), vehicle: Klucel (hydroxypropylcellulose) (HPC) 105 % of control | dose: 37.5 mg/kg/injection, schedule: Q01DX009 (ip), vehicle: Klucel (hydroxypropylcellulose) (HPC) 104 % of control and 105 % of control | dose: 56.25 mg/kg/injection, schedule: Q01DX009 (ip), vehicle: Klucel (hydroxypropylcellulose) (HPC) 104 % of control and 110 % of control

COc1cc(/C=N\O)nc(-c2ccccn2)c1
inactive: dose: 12.5 mg/kg/injection, schedule: Q01DX009 (ip), vehicle: saline 120 % of control | dose: 25.0 mg/kg/injection, schedule: Q01DX009 (ip), vehicle: saline 96 % of control and 120 % of control | dose: 50.0 mg/kg/injection, schedule: Q01DX009 (ip), vehicle: saline 111 % of control and 123 % of control | dose: 100.0 mg/kg/injection, schedule: Q01DX009 (ip), vehicle: saline 114 % of control

COc1cccc(CCNC(=O)CC(=O)O)c1OC
inactive: dose: 100.0 mg/kg/injection, schedule: Q04DX003 (ip), vehicle: saline with Tween-80 100 % of control | dose: 200.0 mg/kg/injection, schedule: Q04DX003 (ip), vehicle: saline with Tween-80 105 % of control | dose: 400.0 mg/kg/injection, schedule: Q04DX003 (ip), vehicle: saline with Tween-80 100 % of control

Cc1c(Cl)cccc1NC(=O)/C=C/C(=O)O
inactive: dose: 44.0 mg/kg/injection, schedule: Q01DX009 (ip), vehicle: saline with Tween-80 95 % of control | [1] 122 % of control | dose: 66.0 mg/kg/injection, schedule: Q01DX009 (ip), vehicle: saline with Tween-80 100 % of control | [2] 100 % of control | dose: 150.0 mg/kg/injection, schedule: Q01DX009 (ip), vehicle: saline with Tween-80 104 % of control | [3] 109 % of control

CC[C@H](c1ccc(O)cc1)[C@@H](CC)c1ccc(O)cc1
inactive: dose: 50.0 mg/kg/injection, schedule: Q01DX009 (ip), vehicle: Klucel (hydroxypropylcellulose) (HPC) 90 % of control | [4] 100 % of control | dose: 100.0 mg/kg/injection, schedule: Q04DX003 (ip), vehicle: other 100 % of control | dose: 132.0 mg/kg/injection, schedule: Q04DX003 (ip), vehicle: Klucel (hydroxypropylcellulose) (HPC) 104 % of control and 120 % of control | [5] 104 % of control | [6] 104 % of control and 120 % of control | dose: 300.0 mg/kg/injection, schedule: Q04DX003 (ip), vehicle: Klucel (hydroxypropylcellulose) (HPC) 109 % of control and 110 % of control | dose: 400.0 mg/kg/injection, schedule: Q04DX003 (ip), vehicle: other 105 % of control

CSc1ncc(Br)c(C(=O)O)n1
inactive: [2] 95 % of control | [3] 100 % of control | [7] 104 % of control

COc1cc(OC)c(C(=O)CCc2ccccc2)c(O)c1Cc1ccccc1O
inactive: dose: 0.5 mg/kg/injection, schedule: Q01DX009 (ip), vehicle: saline 106 % of control | dose: 2.0 mg/kg/injection, schedule: Q01DX009 (ip), vehicle: saline 113 % of control | dose: 4.0 mg/kg/injection, schedule: Q01DX009 (ip), vehicle: saline with Tween-80 120 % of control | dose: 4.0 mg/kg/injection, schedule: Q01DX009 (ip), vehicle: saline 103 % of control | dose: 5.9 mg/kg/injection, schedule: Q01DX009 (ip), vehicle: saline with Tween-80 103 % of control | dose: 13.0 mg/kg/injection, schedule: Q01DX009 (ip), vehicle: saline with Tween-80 103 % of control

CSc1cc(C)c(O)c(CO)c1
inactive: dose: 100.0 mg/kg/injection, schedule: Q01DX009 (ip), vehicle: other 100 % of control | dose: 200.0 mg/kg/injection, schedule: Q01DX009 (ip), vehicle: other 95 % of control | dose: 400.0 mg/kg/injection, schedule: Q01DX009 (ip), vehicle: other 95 % of control

CC1CC2CCCC(O)=C2C(=O)O1 (stereo not drawn)
inactive: dose: 37.0 mg/kg/injection, schedule: Q01DX010 (ip), vehicle: saline 95 % of control | dose: 75.0 mg/kg/injection, schedule: Q01DX010 (ip), vehicle: saline 100 % of control | dose: 150.0 mg/kg/injection, schedule: Q01DX010 (ip), vehicle: saline 105 % of control

O=C(O)C1CC=CCCC1 (stereo not drawn)
inactive: [4] 95 % of control | [8] 91 % of control | [5] 104 % of control | [6] 95 % of control | dose: 400.0 mg/kg/injection, schedule: Q01DX009 (ip), vehicle: Klucel (hydroxypropylcellulose) (HPC) 104 % of control | [9] 91 % of control

NC(CO)C(=O)NC1(C(=O)O)CCCC1 (stereo not drawn) (H-[ξS]-[Ac5c]-OH)
inactive: [2] 109 % of control | [3] 118 % of control | [7] 95 % of control

O=C1c2ccccc2C(=O)c2cc3cc(Cl)ccc3cc21
inactive: [8] 90 % of control | [6] 90 % of control | [9] 90 % of control

C[N+](C)(C)C12CCCCCC1SC2 (stereo not drawn)
inactive: dose: 25.0 mg/kg/injection, schedule: Q04DX003 (ip), vehicle: saline 106 % of control | dose: 50.0 mg/kg/injection, schedule: Q04DX003 (ip), vehicle: saline 101 % of control

CC(/C=N/N=C(N)N)=N\NC(N)=S
inactive: [1] 96 % of control | [2] 116 % of control | [3] 107 % of control

COc1cc2c(cc1OC)C(=O)Cc1ccc3c(c1CN(C)CC2)OCO3
inactive: dose: 1.5 mg/kg/injection, schedule: Q01DX009 (ip), vehicle: saline sonified 95 % of control | dose: 3.0 mg/kg/injection, schedule: Q01DX009 (ip), vehicle: saline sonified 100 % of control | dose: 6.0 mg/kg/injection, schedule: Q01DX009 (ip), vehicle: saline sonified 112 % of control

CCOC(/C=C/c1ccccc1)OCC
inactive: dose: 264.0 mg/kg/injection, schedule: Q04DX003 (ip), vehicle: saline 90 % of control | dose: 400.0 mg/kg/injection, schedule: Q04DX003 (ip), vehicle: saline 100 % of control | dose: 600.0 mg/kg/injection, schedule: Q04DX003 (ip), vehicle: saline 113 % of control

O=C(N=Nc1c(O)[nH]c2c(Cl)cc(Cl)cc12)c1ccccc1O
inactive: [1] 90 % of control | [2] 87 % of control | [3] 96 % of control
